According to patent publication US20260356820A1, “Pyrrolidine and Imidazolidine Based DNA Polymerase Theta Inhibitors and Use Thereof” (Thomas Jefferson University, priority 2022, published 2026):
Where two headings read alike, the source gives them in different places.

Tests used:
[1] = test system: cell types harboring BRCA2 mutations (PE01, VC8, CAPAN-1; BRCA2-null HCT116 and DLD1); assay: Synergy with PARP inhibitors, clonogenic survival of BRCA2-mutated/null cells; assay type: cell-based; conditions: olaparib as PARP inhibitor, Combenefit software analysis
Source text: FIG. 3A depicts a representative scatter plot and synergy plot showing clongenic survival of HCT116 BRCA2-null cells treated with varying concentrations of olaparib with DMSO or various concentrations of Example 6. FIG. 3B depicts a representative scatter plot synergy plot showing clongenic survival of DLD1 BRCA2-null cells treated with varying concentrations of olaparib with DMSO or various concentrations of Example 6. FIG. 3C depicts a representative scatter plot synergy plot showing clongenic survival of PE01 cells treated with varying concentrations of olaparib with DMSO or various concentrations of Example 6. FIG. 3D depicts a representative scatter plot synergy plot showing clongenic survival of VC8 cells treated with varying concentrations of olaparib with DMSO or various concentrations of Example 6. FIG. 3E depicts a representative scatter plot synergy plot showing clongenic survival of CAPAN-1 cells treated with varying concentrations of olaparib with DMSO or various concentrations of Example 6. FIG. 3F depicts a representative scatter plot showing clongenic survival of MDA-MB-231 cells following treatment with various concentrations of talazoparib and DMSO or various concentrations of Example 6 and representative images of colony plates. For FIG. 3A through FIG. 3F, data are presented as mean±SEM; n=3; p-values calculated by two-sample t test. […]

[2] = target: T1, human Polq polymerase domain (Homo sapiens, UniProt O75417); assay: Cy5 fluorescence assay of Polq polymerase domain inhibition; assay type: biochemical
T1 sequence (O75417 1792-2590): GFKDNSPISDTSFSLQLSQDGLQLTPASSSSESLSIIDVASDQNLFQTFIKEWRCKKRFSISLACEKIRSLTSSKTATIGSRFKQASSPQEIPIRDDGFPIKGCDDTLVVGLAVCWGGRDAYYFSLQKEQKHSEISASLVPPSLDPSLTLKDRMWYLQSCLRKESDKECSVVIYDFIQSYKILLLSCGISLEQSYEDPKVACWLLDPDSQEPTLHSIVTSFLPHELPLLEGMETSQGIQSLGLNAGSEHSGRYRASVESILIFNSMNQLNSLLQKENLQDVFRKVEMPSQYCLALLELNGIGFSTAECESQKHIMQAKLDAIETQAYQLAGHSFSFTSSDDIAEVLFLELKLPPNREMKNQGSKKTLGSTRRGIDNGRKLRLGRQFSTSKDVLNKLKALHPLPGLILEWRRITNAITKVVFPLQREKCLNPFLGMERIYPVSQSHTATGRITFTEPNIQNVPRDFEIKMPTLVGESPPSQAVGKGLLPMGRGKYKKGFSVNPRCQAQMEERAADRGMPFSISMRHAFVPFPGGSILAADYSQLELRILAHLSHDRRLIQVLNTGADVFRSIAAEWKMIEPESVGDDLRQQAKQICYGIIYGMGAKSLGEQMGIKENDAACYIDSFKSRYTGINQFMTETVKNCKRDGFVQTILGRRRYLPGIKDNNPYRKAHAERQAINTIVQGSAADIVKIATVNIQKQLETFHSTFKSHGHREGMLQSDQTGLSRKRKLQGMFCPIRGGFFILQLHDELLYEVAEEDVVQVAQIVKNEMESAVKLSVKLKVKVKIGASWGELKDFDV
Description: The following Cy5 fluorescence assay was used to measure the ability of compounds to inhibit Polq polymerase domain in vitro. The fluorescent based assay was performed as follows: 60 nM of the pre-annealed primer-template containing a 5′ Cy5 fluorophore conjugated template strand (SEQ ID NO:3: 5′-/5Cy5/[…]-3′), a downstream complementary oligo conjugated with a 3′ Blackhole quencher (SEQ ID NO:4: 5′-CTAAGCTCACAGTG/3IAbRQSp/-3′) and a primer strand (SEQ ID NO:5: 5′-CTGTCCTGCATGATG-3′) was mixed with 50 uM 2′-deoxyribonucleoside triphosphates (dNTPs), 0.1 mg/mL Bovine serum albumin (BSA), 0.01% NP-40, 10% glycerol, 1 mM dithiothreitol (DTT), 10 mM MgCl2, 25 mM TrisHCl pH 7.8 in the presence of 2.5% DMSO with or without various concentrations (7-point dilution series) of Polq small molecule inhibitors represented by Formula I at 37 °C in a volume of 40 μL.

Row | SMILES | synergy with PARP inhibitors (clonogenic survival) [1] | IC50 [2] [nM] | IC50 ([2]; 5 nM Polq polymerase domain (residues 1792-2590), 60 nM primer-template, 50 uM dNTPs, 37 °C, 18 min, read-out: IC50 (nM) Polq) [nM]
1 | CN(C(=O)Oc1c(N2CCN(CCO)C2=O)cc(C(F)(F)F)cc1C(F)(F)F)c1ccc(F)cc1 [Example 6, 2,4-bis(trifluoromethyl)-6-(3-(2-hydroxyethyl)-2-oxoimidazolidin-1-yl)phenyl (4-fluorophenyl)(methyl)carbamate] | Synergy | 3.2 | 
2 | CN(C(=O)Oc1c(N2CCN(C3CCS(=O)(=O)C3)C2=O)cc(C(F)(F)F)cc1C(F)(F)F)c1ccc(F)cc1 (centres unmarked) [Example 35, 2-(3-(1,1-dioxidotetrahydrothiophen-3-yl)-2-oxoimidazolidin-1-yl)-4,6-bis(trifluoromethyl)phenyl (4-fluorophenyl)(methyl)carbamate] |  | 2.5 | 
3 | CN1CCN(c2cc(C(F)(F)F)cc(C(F)(F)F)c2OC(=O)N(C)c2ccc(F)cc2)C1=O [Example 5, 2,4-bis(trifluoromethyl)-6-(3-methyl-2-oxoimidazolidin-1-yl)phenyl (4-fluorophenyl)(methyl)carbamate] |  |  | 6
4 | CN(C(=O)Oc1c(N2CCCC2=O)cc(C(F)(F)F)cc1C(F)(F)F)c1ccc(F)cc1 [Example 10, 2,4-bis(trifluoromethyl)-6-(2-oxopyrrolidin-1-yl)phenyl (4-fluorophenyl)(methyl)carbamate] |  | 21 | 
